Source: US11976057B2, “MrgX2 antagonists” (GlaxoSmithKline Intellectual Property Development Limited, priority 2020, dated 2024)
Values belong to the compound of their own block, whether it stands above or below them.

Molecular target: T1, human MRGPRX2 (Homo sapiens, UniProt Q96LB1)
T1 sequence (Q96LB1 1-330): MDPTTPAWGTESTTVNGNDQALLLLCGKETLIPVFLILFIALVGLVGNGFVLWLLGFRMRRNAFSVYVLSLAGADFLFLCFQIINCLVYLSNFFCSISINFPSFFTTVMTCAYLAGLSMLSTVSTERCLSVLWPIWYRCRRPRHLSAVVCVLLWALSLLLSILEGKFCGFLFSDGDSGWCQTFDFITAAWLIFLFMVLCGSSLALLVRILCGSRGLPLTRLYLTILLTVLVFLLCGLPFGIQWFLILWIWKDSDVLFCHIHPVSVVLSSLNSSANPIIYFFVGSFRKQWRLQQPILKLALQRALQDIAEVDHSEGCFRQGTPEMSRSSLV
Assay: Ca2+ mobilization assay (FLIPR TETRA): inhibition of Cortistatin-14 mediated MRGPRX2 activation

Compound: CC(Oc1ccc(NC(=O)C(C)N2CCC(F)(F)[C@@H](c3ccc(=O)[nH]c3)C2)nc1)C1CC1 (stereo partly drawn) [Example 31, N-(5-(1-cyclopropyl-ethoxy)pyridin-2-yl)-2-((S)-4,4-difluoro-3-(6-oxo-1,6-dihydropyridin-3-yl)piperidin-1-yl)propanamide]
IC50: 100 to 3160 nM

Compound: C[C@@H](C(=O)Nc1ccc(Cl)cn1)N1CCC[C@@H](c2c[nH]c(=O)c(CO)c2)C1 (single isomer, unassigned) [Example 177]
IC50: 3160 to 31600 nM

Compound: C[C@@H](C(=O)Nc1ccc(OC2CCC2)nn1)N1CCC(F)(F)[C@@H](c2ccc(=O)[nH]c2)C1 [Example 100, (S)-N-(6-cyclobutoxy-pyridazin-3-yl)-2-((S)-4,4-difluoro-3-(6-oxo-1,6-dihydropyridin-3-yl)piperidin-1-yl)propanamide]
IC50: 100 to 3160 nM

Compound: C[C@@H](C(=O)Nc1ccc(F)cn1)N1CCC(F)(F)[C@@H](c2c[nH]c(=O)c(CC(F)(F)F)c2)C1 [Example 151, (S)-2-((S)-4,4-difluoro-3-(6-oxo-5-(2,2,2-trifluoroethyl)-1,6-dihydropyridin-3-yl)piperidin-1-yl)-N-(5-fluoropyridin-2-yl)propanamide]
IC50: 10 to 100 nM

Compound: C[C@@H](C(=O)Nc1ccc(Cl)cn1)N1CCC(F)(F)[C@@H](c2ccc(=O)[nH]n2)C1 [Example 149, (S)-N-(5-chloropyridin-2-yl)-2-((R)-4,4-difluoro-3-(6-oxo-1,6-dihydropyridazin-3-yl)piperidin-1-yl)propanamide]
IC50: 100 to 3160 nM

Compound: CC(C(=O)Nc1ccc(Oc2ccc[nH]c2=O)cn1)N1CCC(F)(F)[C@@H](c2ccc(=O)[nH]c2)C1 (stereo partly drawn) [Example 72, 2-((S)-4,4-difluoro-3-(6-oxo-1,6-dihydropyridin-3-yl)piperidin-1-yl)-N-(5-((2-oxo-1,2-dihydropyridin-3-yl)oxy)pyridin-2-yl)propanamide]
IC50: 10 to 100 nM

Compound: C[C@@H](C(=O)Nc1ccc(F)cn1)N1CCC(F)(F)C(c2cc(CO)c(=O)n(CC(F)(F)F)c2)C1 (stereo partly drawn) [Example 199, (2S)-2-(4,4-difluoro-3-(5-(hydroxymethyl)-6-oxo-1-(2,2,2-trifluoroethyl)-1,6-dihydropyridin-3-yl)piperidin-1-yl)-N-(5-fluoropyridin-2-yl)propanamide]
IC50: 100 to 3160 nM

Compound: CC(C)n1cc(C2CN([C@@H](C)C(=O)Nc3ccc(F)cn3)CCC2(F)F)ccc1=O (stereo partly drawn) [Example 194, (2S)-2-(4,4-difluoro-3-(1-isopropyl-6-oxo-1,6-dihydropyridin-3-yl)piperidin-1-yl)-N-(5-fluoropyridin-2-yl)propanamide]
IC50: 100 to 3160 nM

Compound: CC(C(=O)Nc1cnc(Oc2ccc(F)cc2)cn1)C1CCC[C@@H](c2ccc(=O)[nH]c2)C1 (stereo partly drawn) [Example 284, N-(5-(4-fluorophenoxy)pyrazin-2-yl)-2-((3R)-3-(6-oxo-1,6-dihydropyridin-3-yl)cyclohexyl)propanamide]
IC50: 10 to 100 nM

Compound: CC(C(=O)Nc1cnc(Oc2ccc(F)cc2)cn1)N1CCC(F)(F)C(c2c[nH]c(=O)c(C#N)c2)C1 (stereo not shown) [Example 250, 2-(3-(5-cyano-6-oxo-1,6-dihydropyridin-3-yl)-4,4-difluoropiperidin-1-yl)-N-(5-(4-fluorophenoxy)pyrazin-2-yl)propanamide]
IC50: 100 to 3160 nM

Compound: C[C@@H](C(=O)Nc1ccc(Oc2ccc(F)cc2CO)cn1)N1CCC(F)(F)[C@@H](c2ccc(=O)[nH]c2)C1 [Example 271, (S)-2-((S)-4,4-difluoro-3-(6-oxo-1,6-dihydropyridin-3-yl)piperidin-1-yl)-N-(5-(4-fluoro-2-(hydroxymethyl)phenoxy)pyridin-2-yl)propanamide]
IC50: 10 to 100 nM

Compound: CC(C(=O)Nc1ccc(-c2cccs2)cn1)N1CCC(F)(F)[C@@H](c2ccc(=O)[nH]c2)C1 (stereo partly drawn) [Example 50, 2-((S)-4,4-difluoro-3-(6-oxo-1,6-dihydropyridin-3-yl)piperidin-1-yl)-N-(5-(thiophen-2-yl)pyridin-2-yl)propanamide]
IC50: 100 to 3160 nM

Compound: CC(C(=O)Nc1ccc(F)cn1)N1CCC(F)(F)C(c2cc[n+]([O-])c(C(O)C(F)(F)F)c2)C1 (stereo not shown) [Example 256, 4-(4,4-difluoro-1-(1-((5-fluoropyridin-2-yl)amino)-1-oxopropan-2-yl)piperidin-3-yl)-2-(2,2,2-trifluoro-1-hydroxyethyl)pyridine 1-oxide]
IC50: 10 to 100 nM

Compound: CC(C(=O)Nc1ccc(Cc2cccnc2)cn1)N1CCC(F)(F)[C@@H](c2ccc(=O)[nH]c2)C1 (stereo partly drawn) [Example 45, 2-((S)-4,4-difluoro-3-(6-oxo-1,6-dihydropyridin-3-yl)piperidin-1-yl)-N-(5-(pyridin-3-ylmethyl)pyridin-2-yl)propanamide]
IC50: 3160 to 31600 nM

Compound: C[C@@H](C(=O)Nc1ccc(OCC2CC2)cn1)N1CCC(F)(F)[C@@H](c2cc[n+]([O-])cc2)C1 [Example 111, 4-((S)-1-((S)-1-((5-(cyclopropylmethoxy)pyridin-2-yl)amino)-1-oxopropan-2-yl)-4,4-difluoropiperidin-3-yl)pyridine 1-oxide]
IC50: 10 to 100 nM

Now from value to compound:

IC50: ≤ 10 nM
Compound: CC(C(=O)Nc1ccc(Oc2ccc(F)cc2)cn1)N1CCC(F)(F)C(c2c[nH]c(=O)c(CNCCO)c2)C1 (stereo not shown) [Example 238, 2-(4,4-difluoro-3-(5-(((2-hydroxyethyl)amino)methyl)-6-oxo-1,6-dihydropyridin-3-yl)piperidin-1-yl)-N-(5-(4-fluorophenoxy)pyridin-2-yl)propanamide]

IC50: 10 to 100 nM
Compound: C[C@@H](C(=O)Nc1ccc(C2CC2)cn1)N1CCC(F)(F)[C@@H](c2ccc(=O)[nH]c2)C1 [Example 15, (S)-N-(5-cyclopropyl-pyridin-2-yl)-2-((S)-4,4-difluoro-3-(6-oxo-1,6-dihydropyridin-3-yl)piperidin-1-yl)propanaraide]

IC50: ≤ 10 nM
Compound: C[C@@H](C(=O)Nc1ccc(Oc2ccc(F)cc2F)cn1)N1CCC(F)(F)[C@@H](c2c[nH]c(=O)c(CN3CCC(F)(F)CC3)c2)C1 [Example 240, (S)-N-(5-(2,4-difluorophenoxy)pyridin-2-yl)-2-((S)-3-(5-((4,4-difluoropiperidin-1-yl)methyl)-6-oxo-1,6-dihydropyridin-3-yl)-4,4-difluoropiperidin-1-yl)propanamide]

IC50: ≤ 10 nM
Compound: C[C@@H](C(=O)Nc1ccc(Oc2c(F)cccc2F)cn1)N1CCC(F)(F)[C@@H](c2cc[n+]([O-])cc2)C1 [Example 130, 4-((S)-1-((S)-1-((5-(2,6-difluorophenoxy)pyridin-2-yl)amino)-1-oxopropan-2-yl)-4,4-difluoropiperidin-3-yl)pyridine 1-oxide]

IC50: ≤ 10 nM
Compound: CC(C(=O)Nc1ncc(Oc2ccc(F)cc2F)cc1F)N1CCC(F)(F)[C@@H](c2ccc(=O)[nH]c2)C1 (stereo partly drawn) [Example 87, 2-((S)-4,4-difluoro-3-(6-oxo-1,6-dihydropyridin-3-yl)piperidin-1-yl)-N-(5-(2,4-difluorophenoxy)-3-fluoropyridin-2-yl)propanamide]

IC50: ≤ 10 nM
Compound: CC(C(=O)Nc1ccc(Oc2ccc(F)cc2)cn1)C1CCC(F)(F)C(c2ccc(=O)[nH]c2)C1 (stereo not shown) [Example 278, 2-(4,4-difluoro-3-(6-oxo-1,6-dihydropyridin-3-yl)cyclohexyl)-N-(5-(4-fluorophenoxy)pyridin-2-yl)propanamide]

IC50: ≤ 10 nM
Compound: C[C@@H](C(=O)Nc1ccc(Oc2ccc(F)cc2F)cn1)N1CCC(F)(F)C(c2ccnc(C(N)=O)c2)C1 (mixture of isomers) [Example 261, 4-(1-((S)-1-((5-(2,4-difluorophenoxy)pyridin-2-yl)amino)-1-oxopropan-2-yl)-4,4-difluoropiperidin-3-yl)picolinamide]
